Assay results taken from US20220356174A1, “PYRIDIN-2-ONE COMPOUNDS USEFUL AS SMARCA2 ANTAGONISTS” (Epizyme, Inc., priority 2018, published 2022).
Where two headings read alike, the source gives them in different places.

Legend:
[1] = target: T1, FL-SMARCA2 (full-length human SMARCA2 isoform 1) (Homo sapiens, UniProt P51531); assay: SMARCA2 ATPase activity assay (ADP-Glo, chicken mononucleosome substrate); assay type: biochemical; details: ATP 250 uM
T1 construct: FLAG tag (YKDDDDK) (C); made in house; host or cells: Sf21 insect cells (baculovirus, pFastBacI)
T1 sequence (P51531 with tags, fused parts or gaps): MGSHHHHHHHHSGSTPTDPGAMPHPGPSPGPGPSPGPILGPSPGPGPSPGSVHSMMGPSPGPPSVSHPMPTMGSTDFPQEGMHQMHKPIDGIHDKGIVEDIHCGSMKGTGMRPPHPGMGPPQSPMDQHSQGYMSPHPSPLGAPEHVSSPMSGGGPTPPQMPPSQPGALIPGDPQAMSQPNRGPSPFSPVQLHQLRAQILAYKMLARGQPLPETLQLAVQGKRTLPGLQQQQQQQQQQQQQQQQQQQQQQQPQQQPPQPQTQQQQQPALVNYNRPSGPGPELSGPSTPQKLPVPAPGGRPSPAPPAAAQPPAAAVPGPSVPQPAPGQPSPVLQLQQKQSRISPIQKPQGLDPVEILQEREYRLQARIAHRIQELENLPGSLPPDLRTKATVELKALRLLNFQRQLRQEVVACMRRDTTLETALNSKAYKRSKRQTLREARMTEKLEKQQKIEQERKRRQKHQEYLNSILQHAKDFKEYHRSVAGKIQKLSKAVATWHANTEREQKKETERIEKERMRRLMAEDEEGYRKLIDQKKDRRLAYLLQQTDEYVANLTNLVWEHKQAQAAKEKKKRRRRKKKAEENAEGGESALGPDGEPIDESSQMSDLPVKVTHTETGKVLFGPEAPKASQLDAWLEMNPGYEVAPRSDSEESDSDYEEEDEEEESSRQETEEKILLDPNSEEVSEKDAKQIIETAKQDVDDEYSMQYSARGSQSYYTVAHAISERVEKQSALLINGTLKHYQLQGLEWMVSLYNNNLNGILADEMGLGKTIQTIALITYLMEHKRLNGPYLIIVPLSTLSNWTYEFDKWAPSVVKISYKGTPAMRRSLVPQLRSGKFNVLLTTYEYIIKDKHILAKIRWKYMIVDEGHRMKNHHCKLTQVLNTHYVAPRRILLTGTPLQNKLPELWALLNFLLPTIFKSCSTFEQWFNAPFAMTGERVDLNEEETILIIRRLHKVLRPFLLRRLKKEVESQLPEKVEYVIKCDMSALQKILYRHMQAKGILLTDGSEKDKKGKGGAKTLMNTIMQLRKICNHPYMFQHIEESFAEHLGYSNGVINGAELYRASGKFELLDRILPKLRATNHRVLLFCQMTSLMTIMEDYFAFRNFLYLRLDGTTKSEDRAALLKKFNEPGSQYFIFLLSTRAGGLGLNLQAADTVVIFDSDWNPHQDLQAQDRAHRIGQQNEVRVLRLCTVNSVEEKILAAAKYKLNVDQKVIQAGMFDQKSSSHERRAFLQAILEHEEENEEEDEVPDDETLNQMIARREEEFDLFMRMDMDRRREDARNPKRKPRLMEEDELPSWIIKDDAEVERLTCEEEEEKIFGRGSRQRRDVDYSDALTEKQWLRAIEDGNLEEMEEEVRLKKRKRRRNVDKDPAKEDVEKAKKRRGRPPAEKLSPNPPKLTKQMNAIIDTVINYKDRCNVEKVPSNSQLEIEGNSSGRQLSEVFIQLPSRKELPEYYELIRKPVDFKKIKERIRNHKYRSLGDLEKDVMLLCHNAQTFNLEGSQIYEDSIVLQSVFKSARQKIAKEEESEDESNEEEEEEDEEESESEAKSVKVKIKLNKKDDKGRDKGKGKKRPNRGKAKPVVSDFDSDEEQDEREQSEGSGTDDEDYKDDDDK
Excerpt: Molecular Biology: Full-length human SMARCA2 isoform 1 (P51531) transcript clone was amplified from a cDNA library incorporating an N-terminal HIS tag ([…]) fused directly to Ser2 of SMARCA2 and a C-FLAG tag (YKDDDDK) fused directly to Glu1590 of SMARCA2. The amplified gene was subcloned into pFastBacI (Life Technologies).
Protein Expression: Recombinant baculovirus were generated and protein over-expression was accomplished by infecting exponentially growing Sf21 insect cell culture at 1.24×10^6 cell/ml with an MOI of 0.1. Infections were carried out for 76 hours, harvested by centrifugation, and stored at −80° C. for purification.
Expressed full-length SMARCA2 was purified from cell paste by FLAG affinity chromatography followed by anion exchange chromatography. The protein was dialyzed into a storage buffer containing 25 mM HEPES, 300 mM KCl, 10% Glycerol, pH 7.9, 1 mM TCEP and 0.01% Tween-20. The purity of the protein was measured as 74% using micro-capillary based gel electrophoresis.

[2] = target: FL-SMARCA4 (Homo sapiens, UniProt P51532); assay: SMARCA4 ATPase activity assay (ADP-Glo, chicken mononucleosome substrate)
Chain of FL-SMARCA4 (P51532 whole entry): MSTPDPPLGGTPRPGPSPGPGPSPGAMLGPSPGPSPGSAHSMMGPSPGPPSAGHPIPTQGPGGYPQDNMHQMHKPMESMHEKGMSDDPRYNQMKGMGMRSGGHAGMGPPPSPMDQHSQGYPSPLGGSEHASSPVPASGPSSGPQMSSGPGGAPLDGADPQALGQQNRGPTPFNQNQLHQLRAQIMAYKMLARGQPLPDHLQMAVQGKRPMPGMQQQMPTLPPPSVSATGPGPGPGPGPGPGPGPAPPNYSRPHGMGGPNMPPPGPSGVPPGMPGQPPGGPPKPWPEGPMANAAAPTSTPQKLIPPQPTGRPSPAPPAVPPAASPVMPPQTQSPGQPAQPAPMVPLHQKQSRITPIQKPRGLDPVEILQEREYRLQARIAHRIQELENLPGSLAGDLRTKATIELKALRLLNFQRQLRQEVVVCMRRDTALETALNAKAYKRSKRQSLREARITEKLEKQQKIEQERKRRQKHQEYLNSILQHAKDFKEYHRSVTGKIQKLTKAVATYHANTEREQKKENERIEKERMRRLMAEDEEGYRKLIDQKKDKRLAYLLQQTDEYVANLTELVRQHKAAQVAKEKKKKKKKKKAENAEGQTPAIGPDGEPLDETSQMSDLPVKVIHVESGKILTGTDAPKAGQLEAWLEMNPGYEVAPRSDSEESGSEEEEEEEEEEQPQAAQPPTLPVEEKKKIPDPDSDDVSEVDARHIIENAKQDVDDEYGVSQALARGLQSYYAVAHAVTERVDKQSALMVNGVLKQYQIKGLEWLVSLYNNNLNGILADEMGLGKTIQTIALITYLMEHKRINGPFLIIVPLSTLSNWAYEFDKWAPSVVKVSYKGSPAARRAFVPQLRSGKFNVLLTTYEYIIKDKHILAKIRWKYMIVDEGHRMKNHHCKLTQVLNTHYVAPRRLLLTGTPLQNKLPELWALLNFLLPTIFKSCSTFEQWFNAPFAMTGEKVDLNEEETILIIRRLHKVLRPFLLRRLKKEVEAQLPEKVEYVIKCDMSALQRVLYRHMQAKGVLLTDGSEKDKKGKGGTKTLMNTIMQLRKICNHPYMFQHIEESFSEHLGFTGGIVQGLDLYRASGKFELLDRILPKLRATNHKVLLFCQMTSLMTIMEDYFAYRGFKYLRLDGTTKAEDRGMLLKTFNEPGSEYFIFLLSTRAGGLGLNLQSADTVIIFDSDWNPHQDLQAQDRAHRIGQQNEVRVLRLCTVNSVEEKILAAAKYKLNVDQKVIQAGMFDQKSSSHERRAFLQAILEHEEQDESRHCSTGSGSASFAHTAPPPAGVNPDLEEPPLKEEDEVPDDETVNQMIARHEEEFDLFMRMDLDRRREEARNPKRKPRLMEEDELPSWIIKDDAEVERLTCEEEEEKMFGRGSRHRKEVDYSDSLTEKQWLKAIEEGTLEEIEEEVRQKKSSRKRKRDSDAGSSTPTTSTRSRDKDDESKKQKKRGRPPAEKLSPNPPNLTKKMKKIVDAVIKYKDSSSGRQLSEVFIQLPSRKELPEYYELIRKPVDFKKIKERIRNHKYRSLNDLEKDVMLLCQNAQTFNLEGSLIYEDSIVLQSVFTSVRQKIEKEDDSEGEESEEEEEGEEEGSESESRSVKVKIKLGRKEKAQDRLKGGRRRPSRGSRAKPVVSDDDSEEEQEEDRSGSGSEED

[3] = Table 3b.1, SMARCA2 5 nM, mononucleosome 10 nM
[4] = FL-SMARCA4 IC50, Table 3b.2, SMARCA4 5 nM, ATP 250 uM, mononucleosome 10 nM
[5] = Table 3a.1, SMARCA2 5 nM, mononucleosome 10 nM
[6] = FL-SMARCA4 IC50, Table 3a.2, SMARCA4 5 nM, ATP 250 uM, mononucleosome 10 nM
[7] = Table 3.1, ATPase assay, enzyme 5 nM, chicken mononucleosome 10 nM, 30 min preincubation
[8] = FL-SMARCA4 IC50, Table 3.2, ATPase assay, enzyme 5 nM, ATP 250 uM, chicken mononucleosome 10 nM, 30 min preincubation
[9] = Table 3d.1, ATPase assay, enzyme 5 nM, chicken mononucleosome 10 nM, 30 min preincubation, read-out: FL-SMARCA2 IC>50
[10] = Table 3c.1, ATPase assay, enzyme 5 nM, chicken mononucleosome 10 nM, 30 min preincubation
[11] = FL-SMARCA4 IC>50, Table 3c.2, ATPase assay, enzyme 5 nM, ATP 250 uM, chicken mononucleosome 10 nM, 30 min preincubation

For `O=C(Nc1cc(F)c(=O)n(CCF)c1)c1ccc(Cl)c(Cl)c1` [Compound 17b], the IC50 [1, 3] was 0.645 µM and the IC50 [2, 4] was 4.78 µM.

`CCn1cc(NC(=O)c2ccc3c(c2)OCO3)ccc1=O` [Compound 15a] gave an IC50 [1, 5] greater than 50 µM and an IC50 [2, 6] greater than 50 µM.

`CNC(=O)c1ccc(C(=O)Nc2cc(F)c(=O)n(CCF)c2)s1` [Compound 304] gave an IC50 [1, 7] greater than 50 µM and an IC50 [2, 8] greater than 50 µM.

For `N#Cc1sc(C(=O)Nc2ccc(=O)n(CC(F)F)c2)cc1Cl` [Compound 293], the IC50 [1, 7] was 0.127 µM and the IC50 [2, 8] was 0.3 µM.

With `N#Cc1ccc(C(=O)Nc2cc(F)c(=O)n(CCF)c2)cc1Cl` [Compound 19b] the IC50 [1, 3] was 2.02 µM and the IC50 [2, 4] was 12.6 µM.

`CCn1cc(NC(=O)c2cccn2C)ccc1=O` [Compound 13] gave an IC50 [1, 7] greater than 50 µM and an IC50 [2, 8] greater than 50 µM.

Compound `CCn1cc(NC(=O)c2cc(OC)c(Cl)s2)ccc1=O` [Compound 74] has an IC50 [1, 7] of 17.2 µM and an IC50 [2, 8] of 31.5 µM.

`NC(=O)c1cc(C(=O)Nc2cc(F)c(=O)n(CC(F)F)c2)sc1C(F)(F)F` [Compound 35d] showed an IC50 [1, 9] greater than 50 µM and an IC50 ([2]; FL-SMARCA4 IC50) greater than 50 µM.

`Cn1c(C(=O)Nc2cc(Cl)c(=O)n(CC(F)(F)F)c2)cc(Cl)c1Cl` [Compound 135] gave an IC50 [1, 7] of 0.293 µM and an IC50 [2, 8] of 2 µM.

Compound `O=C(Nc1cc(F)c(=O)n(CCF)c1)c1c[nH]c(=O)s1` [Compound 239] has an IC50 [1, 7] greater than 50 µM and an IC50 [2, 8] greater than 50 µM.

`Cn1cc(NC(=O)c2cc(Cl)c(Cl)s2)cc(Cl)c1=O` [Compound 178] showed an IC50 [1, 7] of 30.8 µM and an IC50 [2, 8] of 37.7 µM.

`O=C(Nc1cc(F)c(=O)n(CC(F)F)c1)c1cc(C(O)C(F)(F)F)c(Cl)s1` (centres unmarked) [Compound 47d] gave an IC50 [1, 9] of 25.1 µM and an IC50 ([2]; FL-SMARCA4 IC50) greater than 50 µM.

`Cn1c(C(=O)Nc2cc(C#N)c(=O)n(CCF)c2)cnc1Cl` [Compound 213] showed an IC50 [1, 7] of 17.9 µM and an IC50 [2, 8] greater than 50 µM.

`CCn1cc(NC(=O)c2c[nH]c3ccccc23)ccc1=O` [Compound 22a] gave an IC50 [1, 5] greater than 50 µM and an IC50 [2, 6] greater than 50 µM.

`Nc1ncc(C(=O)Nc2cc(F)c(=O)n(CCF)c2)s1` [Compound 224] gave an IC50 [1, 7] greater than 50 µM and an IC50 [2, 8] greater than 50 µM.

`O=C(Nc1cc(F)c(=O)n(CCF)c1)c1cc2n(n1)CCNC2=O` [Compound 64a] showed an IC50 [1, 5] greater than 50 µM and an IC50 [2, 6] greater than 50 µM.

In the case of `CS(=O)(=O)c1sc(C(=O)Nc2cc(F)c(=O)n(CCF)c2)cc1Cl` [Compound 301], the IC50 [1, 7] is reported as 16.7 µM and the IC50 [2, 8] is reported as greater than 50 µM.

Compound `CCn1cc(NC(=O)c2cccnc2)ccc1=O` [Compound 14a] has an IC50 [1, 5] greater than 50 µM and an IC50 [2, 6] greater than 50 µM.

`CCn1cc(NC(=O)c2nc(Cl)cs2)ccc1=O` [Compound 63] showed an IC50 [1, 7] greater than 50 µM and an IC50 [2, 8] greater than 50 µM.

Compound `N#Cc1cc(C(=O)Nc2cc(F)c(=O)n(CCF)c2)oc1Cl` [Compound 245] has an IC50 [1, 7] of 2 µM and an IC50 [2, 8] of 12.1 µM.

`CCn1cc(NC(=O)c2sc3ccccc3c2C)ccc1=O` [Compound 40a] was tested, and the IC50 [1, 5] was greater than 50 µM and the IC50 [2, 6] was greater than 50 µM.

In the case of `CCc1cc(NC(=O)c2cc(Cl)c(Cl)s2)cn(CC)c1=O` [Compound 117], the IC50 [1, 7] is reported as greater than 50 µM and the IC50 [2, 8] is reported as greater than 50 µM.

With `CCn1cc(NC(=O)C(=O)c2ccc(Cl)s2)ccc1=O` [Compound 1d] the IC50 [1, 9] was greater than 50 µM and the IC50 ([2]; FL-SMARCA4 IC50) was greater than 50 µM.

`O=C(Nc1cc(F)c(=O)n(CC(F)F)c1)c1cc(C#CC2CN(CC(F)(F)F)C2)c(Cl)s1` [Compound 69c] was tested, and the IC50 [1, 10] was 1 µM and the IC50 [2, 11] was 3.77 µM.

`CCn1cc(NC(=O)c2cc(C#N)[nH]n2)ccc1=O` [Compound 175] was tested, and the IC50 [1, 7] was 2.04 µM and the IC50 [2, 8] was 5.6 µM.

In the case of `CCn1cc(NC(=O)c2cc(Cl)c(Cl)s2)cc(F)c1=O` [Compound 109], the IC50 [1, 7] is reported as 0.173 µM and the IC50 [2, 8] is reported as 0.559 µM.

Compound `CCn1cc(NC(=O)C2CCOCC2)ccc1=O` [Compound 13a] has an IC50 [1, 5] greater than 50 µM and an IC50 [2, 6] greater than 50 µM.

Work on `O=C(Nc1cc(F)c(=O)n(CC(F)F)c1)c1ccc(-c2ccccn2)s1` [Compound 34d] yielded an IC50 [1, 9] greater than 50 µM and an IC50 ([2]; FL-SMARCA4 IC50) greater than 50 µM.

`CCn1cc(NC(=O)c2csc(C(N)=O)n2)ccc1=O` [Compound 184] was tested, and the IC50 [1, 7] was greater than 50 µM and the IC50 [2, 8] was greater than 50 µM.

In the case of `CCCn1nc(NC(=O)c2cc(Cl)c(Cl)s2)ccc1=O` [Compound 22d], the IC50 [1, 9] is reported as 6.38 µM and the IC50 ([2]; FL-SMARCA4 IC50) is reported as 28.9 µM.

For `O=C(Nc1ccc(=O)n(CC(F)(F)F)c1)c1nc2cc(Cl)c(Cl)cc2[nH]1` [Compound 43a], the IC50 [1, 5] was greater than 50 µM and the IC50 [2, 6] was greater than 50 µM.

`COCc1cc(NC(=O)c2cc(F)c(Cl)s2)cn(CC(F)F)c1=O` [Compound 3c] showed an IC50 [1, 10] of 40 µM and an IC50 [2, 11] greater than 50 µM.

In the case of `CCCc1cc(NC(=O)c2cc(Cl)c(Cl)s2)cn(CC)c1=O` [Compound 112], the IC50 [1, 7] is reported as greater than 50 µM and the IC50 [2, 8] is reported as greater than 50 µM.

`O=C(Nc1cc(F)c(=O)n(CC(F)F)c1)c1cc(C#Cc2cccnc2)c(Cl)s1` [Compound 329] showed an IC50 [1, 7] of 0.0312 µM and an IC50 [2, 8] of 0.111 µM.

For `O=C(Nc1cc(F)c(=O)n(CC(F)(F)F)c1)c1cc(Cl)c(Cl)[nH]1` [Compound 169], the IC50 [1, 7] was 0.375 µM and the IC50 [2, 8] was 1.41 µM.

`O=C(Nc1cc(F)c(=O)n(CC(F)F)c1)c1cc(F)c(F)s1` [Compound 109c] gave an IC50 [1, 10] of 0.0625 µM and an IC50 [2, 11] of 0.159 µM.

`CCn1cc(NC(=O)c2nncs2)ccc1=O` [Compound 90] gave an IC50 [1, 7] greater than 50 µM and an IC50 [2, 8] greater than 50 µM.

`CCn1cc(NC(=O)c2c(C)noc2C)ccc1=O` [Compound 14] gave an IC50 [1, 7] greater than 50 µM and an IC50 [2, 8] greater than 50 µM.

`Cc1nc(-c2ccc(C(=O)Nc3cc(F)c(=O)n(CC(F)F)c3)s2)cs1` [Compound 33d] gave an IC50 [1, 9] greater than 50 µM and an IC50 ([2]; FL-SMARCA4 IC50) greater than 50 µM.

In the case of `C[C@H]1OCC(=O)N(Cc2ccccc2)[C@@H]1C(=O)Nc1ccc(=O)n(C)c1` [Compound 7a], the IC50 [1, 5] is reported as greater than 50 µM and the IC50 [2, 6] is reported as greater than 50 µM.

`O=C(Nc1ccc(=O)n(Cc2ccccc2Cl)c1)C1COCCN1` (centres unmarked) [Compound 6a] was tested, and the IC50 [1, 5] was greater than 50 µM and the IC50 [2, 6] was greater than 50 µM.

`O=C(Nc1cc(F)c(=O)n(CC(F)F)c1)c1cc(C#CC2CNC2)c(Cl)s1` [Compound 9c] showed an IC50 [1, 10] of 2.88 µM and an IC50 [2, 11] of 7.82 µM.

For `CCn1cc(NC(=O)c2ccc(Br)n2C)ccc1=O` [Compound 19], the IC50 [1, 7] was greater than 50 µM and the IC50 [2, 8] was greater than 50 µM.

With `CCn1cc(NC(=O)c2cc(Cl)c(Cl)n2Cc2ccccc2)ccc1=O` [Compound 57] the IC50 [1, 7] was greater than 50 µM and the IC50 [2, 8] was greater than 50 µM.

`CCn1cc(NC(=O)c2cc(Cl)c(Cl)n2CCF)ccc1=O` [Compound 60] showed an IC50 [1, 7] of 16.7 µM and an IC50 [2, 8] of 34.7 µM.

`Cn1ccnc1-c1ccc(C(=O)Nc2cc(F)c(=O)n(CCF)c2)s1` [Compound 316] gave an IC50 [1, 7] greater than 50 µM and an IC50 [2, 8] greater than 50 µM.

In the case of `CCn1cc(NC(=O)c2ccc(Cl)o2)ccc1=O` [Compound 20], the IC50 [1, 7] is reported as greater than 50 µM and the IC50 [2, 8] is reported as greater than 50 µM.

For `CCn1cc(NC(=O)c2cc(Cl)c(C#N)n2C)cc(Cl)c1=O` [Compound 161], the IC50 [1, 7] was 0.553 µM and the IC50 [2, 8] was 4.03 µM.

Compound `O=C(Nc1cc(F)c(=O)n(CC(F)CO)c1)c1cc(Cl)c(Cl)s1` (centres unmarked) [Compound 50c] has an IC50 [1, 10] of 2.61 µM and an IC50 [2, 11] of 22.1 µM.

Compound `Nc1c(C(=O)Nc2cc(F)c(=O)n(CC(F)F)c2)sc(Cl)c1Cl` [Compound 332] has an IC50 [1, 7] of 0.331 µM and an IC50 [2, 8] of 2.2 µM.

In the case of `COc1ccc2[nH]c(C(=O)Nc3c[nH]c(=O)c(C)c3)cc2c1` [Compound 8a], the IC50 [1, 5] is reported as greater than 50 µM and the IC50 [2, 6] is reported as greater than 50 µM.

Compound `CN1C(=O)CCC1C(=O)Nc1cc(F)c(=O)n(CCF)c1` (centres unmarked) [Compound 50a] has an IC50 [1, 5] greater than 50 µM and an IC50 [2, 6] greater than 50 µM.

For `CC(=O)c1cc(C(=O)Nc2c[nH]c(=O)c(C)c2)ccc1C` [Compound 1b], the IC50 [1, 3] was greater than 50 µM and the IC50 [2, 4] was greater than 50 µM.

`Cn1c(C(=O)Nc2ccc(=O)[nH]c2)cc(Cl)c1Cl` [Compound 37] showed an IC50 [1, 7] greater than 50 µM and an IC50 [2, 8] greater than 50 µM.

For `CSc1cc(NC(=O)c2cc(F)c(Cl)s2)cn(CC(F)F)c1=O` [Compound 50d], the IC50 [1, 9] was 34.6 µM and the IC50 ([2]; FL-SMARCA4 IC50) was greater than 50 µM.
